# Source: paper PMC8287944, “5-Fluorouracil blocks quorum-sensing of biofilm-embedded methicillin-resistant Staphylococcus aureus in mice” (Nucleic Acids Research, 2021)
# Columns and labels:
# [1] = tested on: AI-2 production by HEK-293AI2 cells expressing MTAN and LuxS; test: HEK-293AI2 / V. harveyi (MM32) AI-2 detection platform (AI-2 production by engineered human cells); assay type: cell-based, human cells; MTAN and LuxS derived from E. coli; conditions: Homo sapiens, 24 h, HEK-293AI2 cells exposed 24 h; AI-2 in supernatant read by V. harveyi MM32 bioluminescence
# Experimental: LuxS (MF688636) and MTAN (MF688635) transgenes derived from E. coli were codon-optimized for stable expression in mammalian cells. For the generation of double stable HEK-293-derived cell line HEK-293AI2 transgenic for simultaneous constitutive PhEFIα-driven MTAN and PhCMV-driven LuxS-eYFP expression, 250,000 cells were first transfected with 2000 ng of pFS168 (PhEFIα-MTAN-pA) and selected in culture medium containing 20 μg/ml blasticidin (cat. no. ant-bl-1; InvivoGen, San Diego, CA, USA) for two weeks. […] After 17 days of selection in medium containing 200 μg/ml (w/v) zeocin (cat. no. ant-zn-1; Invivogen, San Diego, CA, USA) and 20 μg/ml blasticidin, resistant monoclonal cells (HEK-293sFS26cx) were obtained by limiting dilution cloning and screened for AI-2 activity in their supernatants. […] The cell line was regularly tested for the absence of mycoplasma.
# 20 μl of HEK-293AI2 cells (10^4 cells per well) were resuspended in 20 μl Dulbecco's modified Eagle's medium (DMEM; Thermo Fisher, Basel, Switzerland, low glucose, without phenol red, cat. no. 11880–028) supplemented with 4 mM L-glutamine (Thermo Fisher, Basel, Switzerland, cat. no. 25030-024), 30 μg/ml kanamycin and 1% FCS and seeded into a poly-L-lysine-coated Black Greiner clear-bottom 384-well plate (cat. no. 3845; Corning, New York, USA) using a Multidrop Combi Reagent Dispenser (cat. no. 5840300; Thermo Fisher, Basel, Switzerland). Cells were incubated for 20 h and then 20 nL of individual compounds (stock solution in 5 mM in DMSO) or controls (stock solutions of novobiocin, 10 mM in DMSO; staurosporin, 20 mM in DMSO) were transferred with Echo 550 liquid handler (Labcyte, San Jose, CA, USA) into the plate.
# Compound-treated cells were cultivated for 24 hours and the cell culture supernatants (10 μl) were transferred to dry black polystyrene 384-well plates (Corning, New York, USA, cat. no. 3571). The AI-2 activity was quantified by adding 40 μl per 384-well of V. harveyi MM32 AI-2 reporter strain, diluted 1:500 in AB-Medium from a stationary overnight culture grown in Luria Marine (LM)-medium containing 20 g of NaCl, 10 g of Bacto Tryptone (Difco Laboratories), and 5 g of yeast extract (BBL) ([25]). Plates were sealed with BREATHseal™ (cat. no. 7.676 050; Greiner Bio-One, Frickenhausen, Germany) and incubated for 4 h at 30°C and 200 rpm on a Multitron Pro shaker (Infors, Bottmingen, Switzerland). Bioluminescence was measured on an Envision 2104 Multilabel plate reader (Perkin Elmer, Waltham, USA) with 1 s integration time. […] The initial hit inclusion criteria were a toxicity score of less than 50% and an AI-2 activity reduction below the average of all compound activity three times the standard deviation (-49.39% of activity).
# Figure 2. Cell-based primary screen for AI-2 biosynthesis inhibitors. (A) Detailed assay protocol of the primary screen using engineered mammalian cells to identify inhibitors of quorum sensing. […] Aliquots of 10 μl of culture supernatants were transferred to black-bottomed assay plates and mixed with 40 μl of V. harveyi MM32 (AI-2 biosensor). AI-2-induced bioluminescence was measured 4 h later and normalized against the controls. In a secondary screen, the dose-response relationships of hit compounds are analyzed. To simultaneously assess effects on cell viability, compound-treated cells were supplemented with PrestoBlue and incubated for 1 h prior to resorufin fluorescence quantification. (B) Z’-evaluation of the AI-2 inhibitor assay.
# [2] = tested on: SE 1457 wild type; test: AI-2 activity of SE 1457 wild type; assay type: cell-based, Staphylococcus epidermidis; conditions: 3 h, increasing 5-FU concentrations
# Experimental: To confirm that the phenotype could be restored, 1 μM synthetic (S)-4,5-dihydroxy-2,3-pentanedione (DPD) (Biosynth Carbosynth, Staad, Switzerland) was used. After 3 h under static conditions at 37°C, the supernatant was analysed for AI-2 activity with V. harveyi (MM32).
# Supplementary Figure 4 | Bioactivity of 5-FU against Staphylococcus epidermidis (SE). a) Quorum-sensing-associated AI-2 activity of SE 1457 grown for 3 h in the presence of different 5-FU concentrations (note log scale). b) Reversing effect of 1 µM DPD on the AI-2-reducing action of 5-FU (dashed line indicates AI-2 baseline of SE 1457 without 5-FU). Values represent 3 biological replicates expressed as mean ± SD (*, p < 0.05; **, p < 0.01).
# [3] = tested on: V. harveyi (BB170); test: V. harveyi BB170 bioluminescence (5 h); assay type: cell-based, Vibrio harveyi; conditions: V. harveyi BB170, 5 h
# Experimental: The test strain V. harveyi BB170 was grown overnight in Luria Marine (LM)-medium ([25]). The culture was 1:500 diluted in AB-medium (0.3 M NaCl, 10 mM potassium phosphate, 1 mM L-arginine, […], 1% glycerol) the next day, and then challenged with various chemical compounds. After 5 h of shaking at 200 rpm at 30°C, the bioluminescence of BB170 was quantified on a GENios Pro plate reader (Tecan, Männedorf, Switzerland).
# Figure 3. Bioactivity of hit candidates against Vibrio harveyi. Effect on bacterial growth. V. harveyi (BB170) was grown in the presence of individual compounds (A–H) for 5 h and the bioluminescence (green circles) was quantified. After a total of 24 h, bacterial growth (+) was evaluated by measuring the optical density (OD600). The gray translucent background in (C) represents the narrow range within which the compound reduces bioluminescence without affecting growth.
compound,measurement,setting,value
O=c1[nH]cc(F)c(=O)[nH]1 [5-Fluorouracil],IC50,[1],460 nM
same,AI-2 activity of SE 1457,[2],reduced AI-2 activity dose-dependently
same,Effect on V. harveyi bioluminescence,[3],reduced the bioluminescence
